Reference: PubChem BioAssay AID2060889 (Molecular Pharmacology Branch, DTP, NCI, 2025)

Tested on: LG0567-F671-PDC complex spheroids viability
Assay: Anticancer human tumor LG0567-F671-PDC patient-derived lung adenocarcinoma cell line growth inhibition [RAS]
Conditions: for IC50: curve of first compound; for viability, T/C: stronger effect = lower value
Outline: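 Multi-cell-type spheroids: tumor cells plus HUVEC endothelial cells and mesenchymal stem cells. RAS-pathway inhibitors were combined with targeted agents, each dosed in half-log steps down from clinical Cmax, or from 10 microM when Cmax was unknown.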

[1] = second compound 0.00316 µM, first compound 0.0316 µM
[2] = second compound 0.00316 µM, first compound 0.1 µM
[3] = second compound 0.00316 µM, first compound 0.316 µM
[4] = second compound 0.00316 µM, first compound 1 µM
[5] = second compound 0.00316 µM, first compound 3.16 µM
[6] = second compound 0.00316 µM, first compound 10 µM
[7] = second compound 0.01 µM, first compound 0.0316 µM
[8] = second compound 0.01 µM, first compound 0.1 µM
[9] = second compound 0.01 µM, first compound 0.316 µM
[10] = second compound 0.01 µM, first compound 1 µM
[11] = second compound 0.01 µM, first compound 3.16 µM
[12] = second compound 0.01 µM, first compound 10 µM
[13] = second compound 0.0316 µM, first compound 0.0316 µM
[14] = second compound 0.0316 µM, first compound 0.1 µM
[15] = second compound 0.0316 µM, first compound 0.316 µM
[16] = second compound 0.0316 µM, first compound 1 µM
[17] = second compound 0.0316 µM, first compound 3.16 µM
[18] = second compound 0.0316 µM, first compound 10 µM
[19] = second compound 0.1 µM, first compound 0.0316 µM
[20] = second compound 0.1 µM, first compound 0.1 µM
[21] = second compound 0.1 µM, first compound 0.316 µM
[22] = second compound 0.1 µM, first compound 1 µM
[23] = second compound 0.1 µM, first compound 3.16 µM
[24] = second compound 0.1 µM, first compound 10 µM
[25] = second compound 0.316 µM, first compound 0.0316 µM
[26] = second compound 0.316 µM, first compound 0.1 µM
[27] = second compound 0.316 µM, first compound 0.316 µM
[28] = second compound 0.316 µM, first compound 1 µM
[29] = second compound 0.316 µM, first compound 3.16 µM
[30] = second compound 0.316 µM, first compound 10 µM
[31] = second compound 1 µM, first compound 0.0316 µM
[32] = second compound 1 µM, first compound 0.1 µM
[33] = second compound 1 µM, first compound 0.316 µM
[34] = second compound 1 µM, first compound 1 µM
[35] = second compound 1 µM, first compound 3.16 µM
[36] = second compound 1 µM, first compound 10 µM
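Further: spheroids exposed to compound for seven days before readout.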
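Wherever IC50 is given: luminescence signal used as a proxy for viable cells.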

## CCC(CC)c1cc(NC2CCC(N)C2)n2nccc2n1 (stereo unspecified) + C=CC(=O)N1CCN(c2nc(OCC3CCCN3C)nc3c(F)c(-c4nc(N)cc(C)c4C(F)(F)F)c(Cl)cc23)C(C)C1
Second compound 0.00316 µM
  IC50: < 31.6 nM
Second compound 0.01 µM
  IC50: < 31.6 nM
Second compound 0.0316 µM
  IC50: < 31.6 nM
Second compound 0.1 µM
  IC50: < 31.6 nM
Second compound 0.316 µM
  IC50: < 31.6 nM
Second compound 1 µM
  IC50: < 31.6 nM
[1]
  viability, T/C: 18.7%
[2]
  viability, T/C: 16.5%
[3]
  viability, T/C: 17.8%
[4]
  viability, T/C: 15.8%
[5]
  viability, T/C: 3.58%
[6]
  viability, T/C: 0.33%
[7]
  viability, T/C: 12.8%
[8]
  viability, T/C: 13.4%
[9]
  viability, T/C: 15.6%
[10]
  viability, T/C: 12.7%
[11]
  viability, T/C: 3.96%
[12]
  viability, T/C: 0.45%
[13]
  viability, T/C: 11.5%
[14]
  viability, T/C: 11.6%
[15]
  viability, T/C: 12.2%
[16]
  viability, T/C: 11.2%
[17]
  viability, T/C: 3.67%
[18]
  viability, T/C: 0.43%
[19]
  viability, T/C: 11.6%
[20]
  viability, T/C: 16.4%
[21]
  viability, T/C: 12.2%
[22]
  viability, T/C: 10.4%
[23]
  viability, T/C: 3.67%
[24]
  viability, T/C: 0.68%
[25]
  viability, T/C: 11.4%
[26]
  viability, T/C: 11.2%
[27]
  viability, T/C: 12.8%
[28]
  viability, T/C: 11.4%
[29]
  viability, T/C: 4.66%
[30]
  viability, T/C: 0.75%
[31]
  viability, T/C: 14.2%
[32]
  viability, T/C: 14.3%
[33]
  viability, T/C: 14.3%
[34]
  viability, T/C: 12.2%
[35]
  viability, T/C: 4.35%
[36]
  viability, T/C: 0.62%

## Cc1nc(N2CCC3(CC2)COC(C)C3N)c(CO)nc1Sc1ccnc(N)c1Cl (stereo unspecified) + C=CC(=O)N1CCN(c2nc(OCC3CCCN3C)nc3c(F)c(-c4nc(N)cc(C)c4C(F)(F)F)c(Cl)cc23)C(C)C1
Second compound 0.00316 µM
  IC50: < 31.6 nM
Second compound 0.01 µM
  IC50: < 31.6 nM
Second compound 0.0316 µM
  IC50: < 31.6 nM
Second compound 0.1 µM
  IC50: < 31.6 nM
Second compound 0.316 µM
  IC50: < 31.6 nM
Second compound 1 µM
  IC50: < 31.6 nM
[1]
  viability, T/C: 12.4%
[2]
  viability, T/C: 7.94%
[3]
  viability, T/C: 5.15%
[4]
  viability, T/C: 4.23%
[5]
  viability, T/C: 3.11%
[6]
  viability, T/C: 3.36%
[7]
  viability, T/C: 10.9%
[8]
  viability, T/C: 6.73%
[9]
  viability, T/C: 5.04%
[10]
  viability, T/C: 3.41%
[11]
  viability, T/C: 3.13%
[12]
  viability, T/C: 2.84%
[13]
  viability, T/C: 9.73%
[14]
  viability, T/C: 7.78%
[15]
  viability, T/C: 4.91%
[16]
  viability, T/C: 3.38%
[17]
  viability, T/C: 3.09%
[18]
  viability, T/C: 2.69%
[19]
  viability, T/C: 9.46%
[20]
  viability, T/C: 8.29%
[21]
  viability, T/C: 4.85%
[22]
  viability, T/C: 3.44%
[23]
  viability, T/C: 3.22%
[24]
  viability, T/C: 2.91%
[25]
  viability, T/C: 10.3%
[26]
  viability, T/C: 7.09%
[27]
  viability, T/C: 5.95%
[28]
  viability, T/C: 4.14%
[29]
  viability, T/C: 3.2%
[30]
  viability, T/C: 3.39%
[31]
  viability, T/C: 9.98%
[32]
  viability, T/C: 8.28%
[33]
  viability, T/C: 6.91%
[34]
  viability, T/C: 4.16%
[35]
  viability, T/C: 3.7%
[36]
  viability, T/C: 4.07%

## NC1c2ccccc2OC12CCN(c1cnc3c(N4CCCc5ncccc54)n[nH]c3n1)CC2 (stereo unspecified) + C=CC(=O)N1CCN(c2nc(OCC3CCCN3C)nc3c(F)c(-c4nc(N)cc(C)c4C(F)(F)F)c(Cl)cc23)C(C)C1
Second compound 0.00316 µM
  IC50: < 31.6 nM
Second compound 0.01 µM
  IC50: < 31.6 nM
Second compound 0.0316 µM
  IC50: < 31.6 nM
Second compound 0.1 µM
  IC50: < 31.6 nM
Second compound 0.316 µM
  IC50: < 31.6 nM
Second compound 1 µM
  IC50: < 31.6 nM
[1]
  viability, T/C: 6.27%
[2]
  viability, T/C: 4.36%
[3]
  viability, T/C: 3.09%
[4]
  viability, T/C: 2.99%
[5]
  viability, T/C: 2.79%
[6]
  viability, T/C: 3.28%
[7]
  viability, T/C: 5.37%
[8]
  viability, T/C: 3.73%
[9]
  viability, T/C: 2.99%
[10]
  viability, T/C: 2.89%
[11]
  viability, T/C: 2.44%
[12]
  viability, T/C: 2.64%
[13]
  viability, T/C: 4.86%
[14]
  viability, T/C: 3.54%
[15]
  viability, T/C: 3.04%
[16]
  viability, T/C: 3.15%
[17]
  viability, T/C: 2.61%
[18]
  viability, T/C: 3.04%
[19]
  viability, T/C: 5.91%
[20]
  viability, T/C: 4.17%
[21]
  viability, T/C: 2.81%
[22]
  viability, T/C: 2.78%
[23]
  viability, T/C: 3%
[24]
  viability, T/C: 2.64%
[25]
  viability, T/C: 5.55%
[26]
  viability, T/C: 3.15%
[27]
  viability, T/C: 3.61%
[28]
  viability, T/C: 3.03%
[29]
  viability, T/C: 2.75%
[30]
  viability, T/C: 2.78%
[31]
  viability, T/C: 5.5%
[32]
  viability, T/C: 4.65%
[33]
  viability, T/C: 3.58%
[34]
  viability, T/C: 3.3%
[35]
  viability, T/C: 3.79%
[36]
  viability, T/C: 3.5%
